According to patent US11707479B2, “Combination formulation of two antiviral compounds” (priority 2013, dated 2023):
Read-outs that look alike come from different tables or passages of the source. One block for each molecule: values may come before it.

Assays:
[1] = Food effect on Compound I solid dispersion as single agent; assay type: in vivo, human; settings: Compound I 100 mg
genotype 1-6 HCV = assay: Compound I 3-day monotherapy study; assay type: in vivo, Hepatitis C virus
[2] = Spray dry feed solution solvent evaluation: solubility; assay type: physicochemical; settings: Ethanol, methanol, acetone, and dichloromethane
Protocol: The feed solution was initially evaluated for appropriate solvent with regard to solubility, stability, and viscosity. […] Ethanol and methanol-based feed stocks were assessed for preparation ease and spray dried at a range of inlet and outlet temperatures to assess the robustness of the spray dry process. Both solvents gave rapid dissolution of Compound I and copovidone.

[3] = Chemical stability in ethanolic feed solution; assay type: physicochemical
[4] = PK drug-drug interaction between SOF and Compound I; assay type: in vivo, human; settings: for AUCinf % GLSM Ratio (SOF + Compound I/SOF) (90% CI) / AUClast % GLSM Ratio (SOF + Compound I/SOF) (90% CI) / Cmax % GLSM Ratio (SOF + Compound I/SOF) (90% CI): SOF 400 mg + Compound I 150 mg vs SOF 400 mg
[5] = Single and multiple oral doses of Compound I: pharmacokinetics; settings: human, in vivo
genotype 1 HCV = assay: Sofosbuvir 400 mg vs 200 mg once daily with additional HCV therapeutics for 24 weeks; assay type: in vivo, Hepatitis C virus
Protocol: (§1) Safety and tolerability appeared similar across both dose levels. In addition, when sofosbuvir 400 mg once daily plus other HCV therapeutics were given to genotype 2 or 3 HCV infected patients, 100% SVR24 was observed.

[6] = Sofosbuvir single dose exposure, 200 mg tablets; assay type: in vivo, human; settings: single doses up to 1200 mg
Protocol: (§2) The mean sofosbuvir major metabolite AUCtau for the 400 mg sofosbuvir dose is associated with approximately 77% of the maximal HCV RNA change from baseline achievable as determined by this model, a value which is on the cusp of the plateau of the exposure-response sigmoidal curve. In a sigmoidal Emax model, there is a relatively linear exposure-response relationship in the 20 to 80% maximal effect range. Therefore, given that sofosbuvir exposure with 200 mg tablets appears dose-proportional with single doses up to 1200 mg, doses below 400 mg are expected to yield considerable reductions in the magnitude of HCV RNA change from baseline.

HCV RNA = assay: Emax PK/PD modeling of sofosbuvir dose; set-up: species or system Hepatitis C virus; settings: 400 mg sofosbuvir dose, Emax model
Protocol: The sofosbuvir dose selected for the tablet formulation is 400 mg once daily. Support for the 400 mg sofosbuvir dose can be derived from Emax PK/PD modeling with early virological and human exposure data which also supports the selection of a 400 mg sofosbuvir dose over others tested.
as §2

genotype 2 or 3 HCV = assay: Sofosbuvir 400 mg once daily plus other HCV therapeutics, SVR24; assay type: in vivo, Hepatitis C virus; settings: genotype 2 or 3 HCV infected patients
Protocol: as §1

[7] = SOF 400 mg + Compound I 150 mg vs Compound I 150 mg
[8] = SOF 400 mg + Compound I 150 mg, GLSM
[9] = SOF 400 mg single dose alone, GLSM
[10] = human, in vivo, SOF 400 mg + Compound I 150 mg, GLSM

Compound: COC[C@H]1C[C@@H](c2ncc(-c3ccc4c(c3)COc3cc5c(ccc6nc([C@@H]7CC[C@H](C)N7C(=O)[C@@H](NC(=O)OC)C(C)C)[nH]c65)cc3-4)[nH]2)N(C(=O)[C@H](NC(=O)OC)c2ccccc2)C1 [Compound I, methyl {(2S)-1-[(2S,5S)-2-(9-{2-[(2S,4S)-1-{(2R)-2-[(methoxycarbonyl)amino]-2-phenylacetyl}-4-(methoxymethyl)pyrrolidin-2-yl]-1H-imidazol-5-yl}-1,11-dihydroisochromeno[4′,3′ 6,7]naphtho[1,2-d]imidazol-2-yl)-5-methylpyrrolidin-1-yl]-3-methyl-1-oxobutan-2-yl}carbamate]
AUCinf % GLSM Ratio (Fed/Fasted) ([1]; HFM): 86.30%
AUClast % GLSM Ratio (Fed/Fasted) ([1]; HFM): 86.02%
Cmax % GLSM Ratio (Fed/Fasted) ([1]; HFM): 75.02%
AUCinf % GLSM Ratio (Fed/Fasted) ([1]; Light Breakfast): 124.72%
AUClast % GLSM Ratio (Fed/Fasted) ([1]; Light Breakfast): 124.84%
Cmax % GLSM Ratio (Fed/Fasted) ([1]; Light Breakfast): 134.89%
activity against genotype 1-6 HCV (genotype 1-6 HCV): potent activity
solubility in feed solvent [2]: excellent solubility
chemical stability [3]: good chemical stability
Ctau ([4]; Compound I 150 mg multiple doses alone, GLSM): 101.09 ng/mL
AUCtau % GLSM Ratio (SOF + Compound I/Compound I) (90% CI) [4, 7]: 111.71 (107.54, 116.04) %
Cmax % GLSM Ratio (SOF + Compound I/Compound I) (90% CI) [4, 7]: 105.94 (101.86, 110.20) %
Ctau % GLSM Ratio (SOF + Compound I/Compound I) (90% CI) [4, 7]: 117.61 (111.94, 123.57) %
Ctau [4, 8]: 118.90 ng/mL
AUC ([4]; human, plasma, oral, Compound I 150 mg multiple doses alone, GLSM): 7280 ng·h/mL
Cmax ([4]; human, plasma, oral, Compound I 150 mg multiple doses alone, GLSM, read-out: Cmax): 932 ng/mL
AUC ([4]; human, plasma, oral, SOF 400 mg + Compound I 150 mg, GLSM): 8140 ng·h/mL
Cmax ([4]; human, plasma, oral, SOF 400 mg + Compound I 150 mg, GLSM, read-out: Cmax): 988 ng/mL
CL/F ([5]; 5 mg): 58,398.0 mL/h
CL/F ([5]; 50 mg): 19,188.4 mL/h
CL/F ([5]; 100 mg): 24,617.9 mL/h
CL/F ([5]; 450 mg): 53,676.4 mL/h

AUCinf % GLSM Ratio (SOF + Compound I/SOF) (90% CI) [4]: 116.32 (110.99, 121.90) %
AUClast % GLSM Ratio (SOF + Compound I/SOF) (90% CI) [4]: 112.86 (107.90, 118.05) %
Cmax % GLSM Ratio (SOF + Compound I/SOF) (90% CI) [4]: 64.17 (58.45, 70.44) %
AUCinf [4, 8]: 13,774.96 ng · h/mL
AUClast [4, 8]: 12,610.86 ng · h/mL
Cmax [4, 8]: 693.62 ng/mL
AUCinf [4, 9]: 11,842.52 ng · h/mL
AUClast [4, 9]: 11,173.87 ng · h/mL
Cmax [4, 9]: 1080.97 ng/mL
Compound: C[C@@]1(F)[C@H](O)[C@@H](CO)O[C@H]1n1ccc(=O)[nH]c1=O [SOF metabolite II]

AUCinf % GLSM Ratio (SOF + Compound I/SOF) (90% CI) [4]: 179.42 (165.03, 195.06) %
AUClast % GLSM Ratio (SOF + Compound I/SOF) (90% CI) [4]: 182.35 (167.52, 198.50) %
Cmax % GLSM Ratio (SOF + Compound I/SOF) (90% CI) [4]: 161.68 (145.27, 179.94) %
AUCinf [4, 8]: 3455.70 ng·h/mL
AUClast [4, 8]: 3394.32 ng·h/mL
Cmax [4, 8]: 736.88 ng/mL
AUCinf [4, 9]: 1926.09 ng·h/mL
AUClast [4, 9]: 1861.41 ng·h/mL
Cmax [4, 9]: 455.77 ng/mL
increase in AUC when SOF coadministered with Compound I [4]: approximately 1.8 fold
increase in Cmax when SOF coadministered with Compound I [4]: approximately 1.6 fold
Compound: C[C@H](NP(=O)(O)OC[C@H]1O[C@@H](n2ccc(=O)[nH]c2=O)[C@](C)(F)[C@@H]1O)C(=O)O [SOF metabolite I]

Compound: CC(C)OC(=O)[C@H](C)N[P@](=O)(OC[C@H]1O[C@@H](n2ccc(=O)[nH]c2=O)[C@](C)(F)[C@@H]1O)Oc1ccccc1 [sofosbuvir, (S)-isopropyl 2-(((S)-(((2R,3R,4R,5R)-5-(2,4-dioxo-3,4-dihydropyrimidin-1(2H)-yl)-4-fluoro-3-hydroxy-4-methyltetrahydrofuran-2-yl)methoxy)(phenoxy)phosphoryl)amino)propanoate, reference compound]
Safety and tolerability across both dose levels (genotype 1 HCV; 400 mg vs 200 mg once daily): similar
SVR rates, 400 mg once daily compared to 200 mg once daily (genotype 1 HCV; genotype 1 HCV infected patients, with additional HCV therapeutics for 24 weeks): higher SVR rates
dose proportionality of exposure [6]: dose-proportional
AUCinf % GLSM Ratio (SOF + Compound I/SOF) (90% CI) [4]: 237.77 (214.27, 263.85) %
AUClast % GLSM Ratio (SOF + Compound I/SOF) (90% CI) [4]: 238.10 (214.62, 264.16) %
Cmax % GLSM Ratio (SOF + Compound I/SOF) (90% CI) [4]: 181.06 (149.43, 219.38) %
AUCinf [4, 9]: 1159.50 ng·h/mL
increase in AUC when SOF coadministered with Compound I [4]: ~2.4 fold
increase in Cmax when SOF coadministered with Compound I [4]: approximately 1.8 fold
AUC(0-inf) [4, 10]: 2760 ng·h/mL
AUC(0-t) [4, 10]: 2750 ng·h/mL
Cmax ([4]; human, in vivo, SOF 400 mg + Compound I 150 mg, GLSM, read-out: Cmax): 1590 ng/mL
AUC(0-t) ([4]; human, in vivo, SOF 400 mg single dose alone, GLSM): 1150 ng·h/mL
Cmax ([4]; human, in vivo, SOF 400 mg single dose alone, GLSM, read-out: Cmax): 880 ng/mL
fraction of the maximal HCV RNA change from baseline achievable, associated with mean major metabolite AUCtau (HCV RNA): approximately 77%
SVR24 (genotype 2 or 3 HCV): 100%
